Measured values published in US9790210B2, “N-(monocyclic aryl),N'-pyrazolyl-urea, thiourea, guanidine and cyanoguanidine compounds as TrkA kinase inhibitors” (Array BioPharma Inc., priority 2012, dated 2017).
Structures can show the parent of a compound that is named as a salt.

Target: TrkA (Homo sapiens, UniProt P04629)
Assay: TrkA LanthaScreen Eu Kinase Binding Assay
Set-up: 6HIS tagged cytoplasmic domain from Invitrogen, Catalog No. PV3144; purchased Invitrogen PV3144
Details: averaged IC50; TR-FRET binding assay; read-out: TrkA Enzyme IC50
Method: TrkA binding activity was determined in a TrkA LanthaScreen™ Eu Kinase Binding Assay. 5 nM His-tagged recombinant human TrkA (6HIS tagged cytoplasmic domain from Invitrogen, Catalog No. PV3144) was incubated with 4 nM Alexa-Fluor® Tracer 236 (Invitrogen Cat. No. PV5592), 2 nM biotinylated anti-His (Invitrogen Cat. No. PV6090), and 2 nM europium-labeled Streptavidin (Invitrogen Cat. No. PV5899), in buffer (25 mM MOPS, pH 7.5, 5 mM MgCl2, 0.005% Triton X-100). Three fold serial dilutions of compounds of the invention in DMSO were added to a final percentage of 2% DMSO. After 60-minute incubation at 22° C., the reaction was measured using the EnVision mutlimode plate reader (PerkinElmer) via TR-FRET dual wavelength detection at […]. The percent of control was calculated using a ratiometric emission factor. The IC50 values were determined by fitting a four parameter model to the percent of control data.
Table A provides averaged IC50 values for compounds of the invention when tested in the assay of Example A, where A represents an averaged IC50 value<100 nM; B represents an averaged IC50 value from 100 to 1,000 nM; and C represents an averaged IC50 value from 1,000 to 10,000 nM.

Chain of TrkA (P04629 440-796 limits assumed): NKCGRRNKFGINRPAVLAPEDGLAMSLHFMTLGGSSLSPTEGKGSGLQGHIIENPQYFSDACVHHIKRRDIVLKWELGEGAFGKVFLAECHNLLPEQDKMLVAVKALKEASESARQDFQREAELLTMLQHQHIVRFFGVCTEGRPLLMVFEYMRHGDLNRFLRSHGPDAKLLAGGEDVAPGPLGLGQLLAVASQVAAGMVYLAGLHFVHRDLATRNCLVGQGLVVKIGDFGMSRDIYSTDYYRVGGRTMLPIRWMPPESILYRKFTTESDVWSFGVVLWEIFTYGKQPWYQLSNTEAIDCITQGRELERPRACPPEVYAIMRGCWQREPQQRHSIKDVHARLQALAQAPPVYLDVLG

SMILES | IC50
COCCCc1cc(Cl)c(Cl)cc1NC(=O)Nc1c(C)c(OC2CCNCC2)nn1-c1ccccc1 [Example 42, 1-(4,5-dichloro-2-(3-methoxypropyl)phenyl)-3-(4-methyl-1-phenyl-3-(piperidin-4-yloxy)-1H-pyrazol-5-yl)urea hydrochloride] | < 100 nM
COCCCc1cc(Cl)c(Cl)cc1NC(=O)Nc1c(C)c(OCC2CCCN2)nn1-c1ccccc1 (centres unmarked) [Example 43, 1-(4,5-dichloro-2-(3-methoxypropyl)phenyl)-3-(4-methyl-1-phenyl-3-(pyrrolidin-2-ylmethoxy)-1H-pyrazol-5-yl)urea hydrochloride] | < 100 nM
COCCCc1cc(Cl)c(Cl)cc1NC(=O)Nc1c(C)c(OC[C@H]2CNCCO2)nn1-c1ccccc1 [Example 44, (R)-1-(4,5-dichloro-2-(3-methoxypropyl)phenyl)-3-(4-methyl-3-(morpholin-2-ylmethoxy)-1-phenyl-1H-pyrazol-5-yl)urea hydrochloride] | < 100 nM
COCCCc1cc(Cl)c(Cl)cc1NC(=O)Nc1c(C)c(OCC2(F)CCNCC2)nn1-c1ccccc1 [Example 45, 1-(4,5-dichloro-2-(3-methoxypropyl)phenyl)-3-(3-((4-fluoropiperidin-4-yl)methoxy)-4-methyl-1-phenyl-1H-pyrazol-5-yl)urea hydrochloride] | < 100 nM
COCCCc1cc(Cl)c(Cl)cc1NC(=O)Nc1c(C)c(OC[C@H]2CCCNC2)nn1-c1ccccc1 [Example 46, (S)-1-(4,5-dichloro-2-(3-methoxypropyl)phenyl)-3-(4-methyl-1-phenyl-3-(piperidin-3-ylmethoxy)-1H-pyrazol-5-yl)urea hydrochloride] | < 100 nM
COCCCc1cc(Cl)c(Cl)cc1NC(=O)Nc1c(C)c(OC[C@@H]2CCCNC2)nn1-c1ccccc1 [Example 47, (R)-1-(4,5-dichloro-2-(3-methoxypropyl)phenyl)-3-(4-methyl-1-phenyl-3-(piperidin-3-ylmethoxy)-1H-pyrazol-5-yl)urea hydrochloride] | < 100 nM
COCCCc1cc(F)c(C(F)(F)F)cc1NC(=O)Nc1c(C)c(OC)nn1-c1ccccc1 [Example 48, 1-(4-fluoro-2-(3-methoxypropyl)-5-(trifluoromethyl)phenyl)-3-(3-methoxy-4-methyl-1-phenyl-1H-pyrazol-5-yl)urea] | < 100 nM
COCCCc1cc(Cl)c(Cl)cc1NC(=O)Nc1c(C)c(OCCN2CCN(C(=O)OC(C)(C)C)CC2)nn1-c1ccccc1 [Example 49, tert-butyl 4-(2-((5-(3-(4,5-dichloro-2-(3-methoxypropyl)phenyl)ureido)-4-methyl-1-phenyl-1H-pyrazol-3-yl)oxy)ethyl)piperazine-1-carboxylate] | < 100 nM

Next, values leading:

IC50 | SMILES
< 100 nM | COCCCc1cc(Cl)c(Cl)cc1NC(=O)Nc1c(C)c(C(=O)NC2CCN(C)CC2)nn1-c1ccccc1 [Example 33, 5-(3-(4,5-dichloro-2-(3-methoxypropyl)phenyl)ureido)-4-methyl-N-(1-methylpiperidin-4-yl)-1-phenyl-1H-pyrazole-3-carboxamide]
< 100 nM | COCCCc1cc(Cl)c(Cl)cc1NC(=O)Nc1c(C)c(OC[C@H]2CCCN(C)C2)nn1-c1ccccc1 [Example 34, (S)-1-(4,5-dichloro-2-(3-methoxypropyl)phenyl)-3-(4-methyl-3-((1-methylpiperidin-3-yl)methoxy)-1-phenyl-1H-pyrazol-5-yl)urea]
< 100 nM | COCCCc1cc(Cl)c(Cl)cc1NC(=O)Nc1c(C)c(OC[C@@H]2CCCN(C)C2)nn1-c1ccccc1 [Example 35, (R)-1-(4,5-dichloro-2-(3-methoxypropyl)phenyl)-3-(4-methyl-3-((1-methylpiperidin-3-yl)methoxy)-1-phenyl-1H-pyrazol-5-yl)urea]
< 100 nM | COCCCc1cc(Cl)c(Cl)cc1NC(=O)Nc1c(C)c(C(=O)NC2CCOCC2)nn1-c1ccccc1 [Example 36, 5-(3-(4,5-dichloro-2-(3-methoxypropyl)phenyl)ureido)-4-methyl-1-phenyl-N-(tetrahydro-2H-pyran-4-yl)-1H-pyrazole-3-carboxamide]
< 100 nM | COCCCc1cc(Cl)c(Cl)cc1NC(=O)Nc1c(C)c(OCC2CN(C)C2)nn1-c1ccccc1 [Example 37, 1-(4,5-dichloro-2-(3-methoxypropyl)phenyl)-3-(4-methyl-3-((1-methylazetidin-3-yl)methoxy)-1-phenyl-1H-pyrazol-5-yl)urea]
< 100 nM | COCCCc1cc(Cl)c(Cl)cc1NC(=O)Nc1c(C)c(OC[C@@H]2CNCCO2)nn1-c1ccccc1 [Example 38, (S)-1-(4,5-dichloro-2-(3-methoxypropyl)phenyl)-3-(4-methyl-3-(morpholin-2-ylmethoxy)-1-phenyl-1H-pyrazol-5-yl)urea hydrochloride]
< 100 nM | COCCCc1cc(Cl)c(Cl)cc1NC(=O)Nc1c(C)c(OCCN2CCNCC2)nn1-c1ccccc1 [Example 39, 1-(4,5-dichloro-2-(3-methoxypropyl)phenyl)-3-(4-methyl-1-phenyl-3-(2-(piperazin-1-yl)ethoxy)-1H-pyrazol-5-yl)urea dihydrochloride]
< 100 nM | COCCCc1cc(Cl)c(Cl)cc1NC(=O)Nc1c(C)c(OCCC2CCNCC2)nn1-c1ccccc1 [Example 40, 1-(4,5-dichloro-2-(3-methoxypropyl)phenyl)-3-(4-methyl-1-phenyl-3-(2-(piperidin-4-yl)ethoxy)-1H-pyrazol-5-yl)urea hydrochloride]
< 100 nM | COCCCc1cc(Cl)c(Cl)cc1NC(=O)Nc1c(C)c(OCC2CCNCC2)nn1-c1ccccc1 [Example 41, 1-(4,5-dichloro-2-(3-methoxypropyl)phenyl)-3-(4-methyl-1-phenyl-3-(piperidin-4-ylmethoxy)-1H-pyrazol-5-yl)urea hydrochloride]
